Where “and” joins values, the source holds several entries; their conditions need not be identical. Equal values may be shown once. Entries after “also recorded” stand apart in the source; their conditions may differ. Where a name gives a salt, the structure may show the parent alone. Read-outs that look alike come from different tables or passages of the source.
How the values were obtained:
[1] = test system: peripheral nerve; conditions: in vivo; cited from earlier work
[2] = test system: rat cornea; set-up: species or system Sprague-Dawley rats; conditions: in vivo
[3] = test system: α2-AR; conditions: cited from earlier work
[4] = in vivo; cited from earlier work
[5] = test system: human corneal limbal epithelial (HCLE) cells
[6] = test system: rats; conditions: rat, in vivo
[7] = test system: rats; conditions: rat, in vivo; cited from earlier work
[8] = in vivo; cited from earlier work; remark: listed apart in the source

SMILES: Clc1cccc(Cl)c1N=C1NCCN1 [CLON, clonidine hydrochloride]
- effective concentrations in peripheral nerve [1]: 10 µM
- effect of the added agent on the duration of corneal block from TTX (in words) [2]: failed to prolong corneal block
- selectivity for the α2-AR, times less selective than dexmedetomidine [3]: 8 times

SMILES: Cc1cccc([C@H](C)c2cnc[nH]2)c1C [DMED, (S)-4-[1-(2,3-Dimethylphenyl)ethyl]-3H-imidazole]
- effective concentrations in peripheral nerve [1]: 2.7 µM
- half-life [4]: approximately 2 hours
- HCLE cell survival compared to cells not exposed to drug [5]: not reduced
- sedation, dose response of DMED (FIG. 4) [6]: sedation results from the higher two doses
- Block0.5 (duration without blink response to 0.5 cm filament) [2]: 0 ± 0 min
- Block2 (duration without blink response to 2 cm filament) [2]: 0 ± 0 min
- Block<6 (duration without blink response to any filament less than 6 cm) [2]: 0 ± 0 min
- corneal anesthesia (in words) [2]: did not produce any degree of corneal anesthesia
- effect of increasing doses of DMED on block (FIG. 4) [2]: do not increase block further
- perineural doses that produce undesired sedation [7]: above 6 μg/kg

SMILES: CCCOc1ccc(C(=O)OCCN(CC)CC)cc1N [PPC, Proparacaine hydrochloride]
- animals in which block0.5 occurred [2]: all animals
- Block0.5 (duration without blink response to 0.5 cm filament) ([2]; hydrochloride): 18 ± 6 min
- Block2 (duration without blink response to 2 cm filament) ([2]; hydrochloride): 35 min and 35 ± 10 min
- Block<6 (duration without blink response to any filament less than 6 cm) ([2]; hydrochloride): 54 min and 54 ± 8 min

SMILES: CC[N+](CC)(CC)CC(=O)Nc1c(C)cccc1C.[Br-] [QX-314]
- duration of local anesthesia [8]: approximately 24 h

SMILES: N=C1N[C@@H](O)[C@H]2[C@@H]3OC4(O)OC(C(O)[C@@]2(N1)[C@@H]4O)[C@]3(O)CO (stereo partly drawn) [TTX, Tetrodotoxin]
- Block0.5 duration of corneal block [2]: 12 ± 12.5 min
- Block2 duration of corneal block [2]: 39 ± 22.7 min
- Block < 6 duration of corneal block [2]: 117 ± 19.5 min
- animals in which block0.5 of any duration occurred [2]: 5 of 14
- block<6 durations compared with 15 mM proparacaine [2]: comparable to those from 15 mM proparacaine

SMILES: CCN(c1ccccc1)c1cc(NC)[n+](C)c(C)n1.[Cl-] [ZD7288, 4-(N-Ethyl-N-phenylamino)-1,2 dimethyl-6-(methylamino) pyrimidinium chloride]
- effect of the added agent on the duration of corneal block from TTX (in words) [2]: prolongs the duration of corneal block from TTX

SMILES: CNC[C@H](O)c1ccc(O)c(O)c1 [epinephrine]
- effect of the added agent on the duration of corneal block from TTX (in words) [2]: failed to prolong corneal block

SMILES: CNC[C@H](O)c1cccc(O)c1 [phenylephrine]
- effect of the added agent on the duration of corneal block from TTX (in words) [2]: at low concentrations (but not high concentrations) prolonged the duration of corneal block from TTX; also recorded: greatly prolonged the duration of corneal block by TTX

SMILES: COc1cc2nc(N3CCN(C(=O)c4ccco4)CC3)nc(N)c2cc1OC [prazosin]
- effect of the added agent on the duration of corneal block from TTX (in words) [2]: did not shorten the duration of corneal block from TTX

Reference: patent US20170368176A1 (priority 2014, published 2017)
